Patent EP2768830B1, “APOPTOSIS-INDUCING AGENTS FOR THE TREATMENT OF CANCER AND IMMUNE AND AUTOIMMUNE DISEASES” (AbbVie Inc., priority 2011, dated 2013)
Read-outs that look alike come from different tables or passages of the source.

How the values were obtained:
[1] = system: mouse FL5.12 cells transfected with Bcl-XL; assay: FL5.12 cellular assay (cell viability, CellTiter-Glo); type: cell-based;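 further: each EC50 determination derived from duplicate measurements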
[2] = molecular target: GST-Bcl-xL (Homo sapiens, UniProt Q07817); settings: read-out: TR-FRET binding Bcl-xL Ki
[3] = Mus musculus, FL5.12 cells transfected with Bcl-XL, IL-3-depleted, 3% FBS assay media, 24 hours, CellTiter-Glo, read-out: FL5.12 Bcl-xL, - IL3, EC 50

Sequence of GST-Bcl-xL (Q07817 whole entry): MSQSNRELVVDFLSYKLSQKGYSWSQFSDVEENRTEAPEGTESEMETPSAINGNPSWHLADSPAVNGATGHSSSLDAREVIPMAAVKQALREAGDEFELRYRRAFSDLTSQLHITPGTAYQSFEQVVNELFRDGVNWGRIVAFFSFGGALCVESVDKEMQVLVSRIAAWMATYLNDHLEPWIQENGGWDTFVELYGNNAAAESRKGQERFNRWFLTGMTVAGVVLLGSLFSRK

| SMILES | EC50 [1, 3] | Ki [2] | EC50 ([1]; FL5.12 cells transfected with Bcl-XL, IL-3-depleted, 3% FBS assay media, 24 hours, CellTiter-Glo, read-out: FL5.12 Bcl-xL, - IL3, EC 50) | EC50 ([1]; Mus musculus, FL5.12, 24 h, read-out: FL5.12 Bcl-xL, - IL3, EC 50 (nM)) |
| --- | --- | --- | --- | --- |
| Cc1c(OC2CCCC(C)(C)C2)cccc1-c1ccc(N2CCc3cccc(C(=O)Nc4nc5ccccc5s4)c3C2)nc1C(=O)O (stereo not shown) [Example 121, 6-[8-(1,3-benzothiazol-2-ylcarbamoyl)-3,4-dihydroisoquinolin-2(1H)-yl]-3-{3-[(3,3-dimethylcyclohexyl)oxy]-2-methylphenyl}pyridine-2-carboxylic acid] | 82 nM | 0.1 nM |  |  |
| Cc1c(-c2ccc(N3CCc4cccc(C(=O)Nc5nc6ccccc6s5)c4C3)nc2C(=O)O)cnn1Cc1ccccc1OCCCN1CCOCC1 [Example 81, 6-[8-(1,3-benzothiazol-2-ylcarbamoyl)-3,4-dihydroisoquinolin-2(1H)-yl]-3-(5-methyl-1-{2-[3-(morpholin-4-yl)propoxy]benzyl}-1H-pyrazol-4-yl)pyridine-2-carboxylic acid] | 37 nM | 0.6 nM |  |  |
| O=C(Nc1nc2ccccc2s1)c1cccc2c1CN(c1ccc(-c3cnn(Cc4ccccc4OCc4ccncc4)c3)c(C(=O)O)n1)CC2 [Example 48, 6-[8-(1,3-benzothiazol-2-ylcarbamoyl)-3,4-dihydroisoquinolin-2(1H)-yl]-3-{1-[2-(pyridin-4-ylmethoxy)benzyl]-1H-pyrazol-4-yl}pyridine-2-carboxylic acid] | > 1000 nM | 7 nM |  |  |
| Cc1c(-c2ccc(N3CCc4cccc(C(=O)Nc5nc6ccccc6s5)c4C3)nc2C(=O)O)cnn1CC1CCCC1 [Example 63, 6-[8-(1,3-benzothiazol-2-ylcarbamoyl)-3,4-dihydroisoquinolin-2(1H)-yl]-3-[1-(cyclopentylmethyl)-5-methyl-1H-pyrazol-4-yl]pyridine-2-carboxylic acid] | 27 nM | 2 nM |  |  |
| O=C(Nc1nc2ccccc2s1)c1cccc2c1CN(c1ccc(-c3cn(Cc4ccccc4)nn3)c(C(=O)O)n1)CC2 [Example 122, 6-[8-(1,3-benzothiazol-2-ylcarbamoyl)-3,4-dihydroisoquinolin-2(1H)-yl]-3-(1-benzyl-1H-1,2,3-triazol-4-yl)pyridine-2-carboxylic acid] | > 1000 nM | 117 nM |  |  |
| COC(=O)C(c1ccccc1)n1cc(-c2ccc(N3CCc4cccc(C(=O)Nc5nc6ccccc6s5)c4C3)nc2C(=O)O)cn1 (stereo not shown) [Example 95, 6-[8-(1,3-benzothiazol-2-ylcarbamoyl)-3,4-dihydroisoquinolin-2(1H)-yl]-3-[1-(2-methoxy-2-oxo-1-phenylethyl)-1H-pyrazol-4-yl]pyridine-2-carboxylic acid] | 542 nM | 11 nM |  |  |
| Cc1c(-c2ccc(N3CCc4cccc(C(=O)Nc5nc6ccccc6s5)c4C3)nc2C(=O)O)cnn1Cc1ccccc1OCCN(C)C [Example 49, 6-[8-(1,3-benzothiazol-2-ylcarbamoyl)-3,4-dihydroisoquinolin-2(1H)-yl]-3-(1-{2-[2-(dimethylamino)ethoxy]benzyl}-5-methyl-1H-pyrazol-4-yl)pyridine-2-carboxylic acid] | 12 nM | 0.6 nM |  |  |
| COC1(Cn2nnc(-c3ccc(N4CCc5cccc(C(=O)Nc6nc7ccccc7s6)c5C4)nc3C(=O)O)c2C)CCCC(C)(C)C1 (stereo not shown) [Example 166, 6-[8-(1,3-benzothiazol-2-ylcarbamoyl)-3,4-dihydroisoquinolin-2(1H)-yl]-3-{1-[(1-methoxy-3,3-dimethylcyclohexyl)methyl]-5-methyl-1H-1,2,3-triazol-4-yl}pyridine-2-carboxylic acid] | 30 nM | < 0.1 nM |  |  |
| Cc1noc(-c2cccc(Cn3cc(-c4ccc(N5CCc6cccc(C(=O)Nc7nc8ccccc8s7)c6C5)nc4C(=O)O)cn3)c2)n1 [Example 29, 6-[8-(1,3-benzothiazol-2-ylcarbamoyl)-3,4-dihydroisoquinolin-2(1H)-yl]-3-{1-[3-(3-methyl-1,2,4-oxadiazol-5-yl)benzyl]-1H-pyrazol-4-yl}pyridine-2-carboxylic acid] | > 1000 nM | 18 nM |  |  |
| O=C(Nc1nc2ccccc2s1)c1cccc2c1CN(c1ccc(-c3ccc4c(c3)CCN(Cc3ccccn3)C4)c(C(=O)O)n1)CC2 [Example 136, 6-[8-(1,3-benzothiazol-2-ylcarbamoyl)-3,4-dihydroisoquinolin-2(1H)-yl]-3-[2-(pyridin-2-ylmethyl)-1,2,3,4-tetrahydroisoquinolin-6-yl]pyridine-2-carboxylic acid] | > 1000 nM | 1.4 nM |  |  |
| O=C(Nc1nc2ccccc2s1)c1cccc2c1CN(c1ccc(-c3ccn(C(=O)c4ccccc4)c3)c(C(=O)O)n1)CC2 [Example 127, 6-[8-(1,3-benzothiazol-2-ylcarbamoyl)-3,4-dihydroisoquinolin-2(1H)-yl]-3-(1-benzoyl-1H-pyrrol-3-yl)pyridine-2-carboxylic acid] | > 1000 nM | 2 nM |  |  |
| O=C(Nc1nc2ccccc2s1)c1cccc2c1CN(c1ccc(-c3cnn(Cc4cc(F)cc(F)c4)c3)c(C(=O)O)n1)CC2 [Example 53, 6-[8-(1,3-benzothiazol-2-ylcarbamoyl)-3,4-dihydroisoquinolin-2(1H)-yl]-3-[1-(3,5-difluorobenzyl)-1H-pyrazol-4-yl]pyridine-2-carboxylic acid] |  | 14 nM | 387 nM |  |
| Cc1c(-c2ccc(N3CCc4cccc(C(=O)Nc5nc6ccccc6s5)c4C3)nc2C(=O)O)cc(C#N)n1CC1CCCCC1 [Example 130, 6-[8-(1,3-benzothiazol-2-ylcarbamoyl)-3,4-dihydroisoquinolin-2(1H)-yl]-3-[5-cyano-1-(cyclohexylmethyl)-2-methyl-1H-pyrrol-3-yl]pyridine-2-carboxylic acid] | 30 nM | < 0.1 nM |  |  |
| O=C(Nc1nc2ccccc2s1)c1cccc2c1CN(c1ccc(-c3cnn(CCC4CCCCC4)c3)c(C(=O)O)n1)CC2 [Example 60, 6-[8-(1,3-benzothiazol-2-ylcarbamoyl)-3,4-dihydroisoquinolin-2(1H)-yl]-3-[1-(2-cyclohexylethyl)-1H-pyrazol-4-yl]pyridine-2-carboxylic acid] | 219 nM | 5 nM |  |  |
| Cc1c(-c2ccc(N3CCc4cccc(C(=O)Nc5nc6ccccc6s5)c4C3)nc2C(=O)O)cnn1CC1(OCC(=O)N2CCOCC2)CCCCC1 [Example 174, 6-[8-(1,3-benzothiazol-2-ylcarbamoyl)-3,4-dihydroisoquinolin-2(1H)-yl]-3-[5-methyl-1-({1-[2-(morpholin-4-yl)-2-oxoethoxy]cyclohexyl}methyl)-1H-pyrazol-4-yl]pyridine-2-carboxylic acid] | 210 nM | < 0.1 nM |  |  |
| Cc1c(-c2ccc(N3CCc4cccc(C(=O)Nc5nc6ccccc6s5)c4C3)nc2C(=O)O)c(CO)nn1Cc1ccccc1 [Example 30, 6-[8-(1,3-benzothiazol-2-ylcarbamoyl)-3,4-dihydroisoquinolin-2(1H)-yl]-3-[1-benzyl-3-(hydroxymethyl)-5-methyl-1H-pyrazol-4-yl]pyridine-2-carboxylic acid] | 298 nM | 2 nM |  |  |
| Cc1c(-c2ccc(N3CCc4cccc(C(=O)Nc5nc6ccccc6s5)c4C3)nc2C(=O)O)cnn1Cc1ccccc1OCC(C)(CO)CO [Example 98, 6-[8-(1,3-benzothiazol-2-ylcarbamoyl)-3,4-dihydroisoquinolin-2(1H)-yl]-3-(1-{2-[3-hydroxy-2-(hydroxymethyl)-2-methylpropoxy]benzyl}-5-methyl-1H-pyrazol-4-yl)pyridine-2-carboxylic acid] | 421 nM | 2 nM |  |  |
| CN(C)Cc1cccc(Cn2cc(-c3ccc(N4CCc5cccc(C(=O)Nc6nc7ccccc7s6)c5C4)nc3C(=O)O)cn2)c1 [Example 68, 6-[8-(1,3-benzothiazol-2-ylcarbamoyl)-3,4-dihydroisoquinolin-2(1H)-yl]-3-(1-{3-[(dimethylamino)methyl]benzyl}-1H-pyrazol-4-yl)pyridine-2-carboxylic acid] | > 1000 nM | 279 nM |  |  |
| COC1(Cn2ncc(-c3ccc(N4CCc5cccc(C(=O)Nc6nc7ccccc7s6)c5C4)nc3C(=O)NS(C)(=O)=O)c2C)CCCC(C)(C)C1 (stereo not shown) [Example 162, N-(1,3-benzothiazol-2-yl)-2-(5-{1-[(1-methoxy-3,3-dimethylcyclohexyl)methyl]-5-methyl-1H-pyrazol-4-yl}-6-[(methylsulfonyl)carbamoyl]pyridin-2-yl)-1,2,3,4-tetrahydroisoquinoline-8-carboxamide] | 5 nM | < 0.1 nM |  |  |
| O=C(Nc1nc2ccccc2s1)c1cccc2c1CN(c1ccc(-c3ccn(S(=O)(=O)c4ccccc4)c3)c(C(=O)O)n1)CC2 [Example 128, 6-[8-(1,3-benzothiazol-2-ylcarbamoyl)-3,4-dihydroisoquinolin-2(1H)-yl]-3-[1-(phenylsulfonyl)-1H-pyrrol-3-yl]pyridine-2-carboxylic acid] | > 1000 nM | 7 nM |  |  |
| Cc1nn(Cc2ccccc2)cc1-c1ccc(N2CCc3cccc(C(=O)Nc4nc5ccccc5s4)c3C2)nc1C(=O)O [Example 19, 6-[8-(1,3-benzothiazol-2-ylcarbamoyl)-3,4-dihydroisoquinolin-2(1H)-yl]-3-(1-benzyl-3-methyl-1H-pyrazol-4-yl)pyridine-2-carboxylic acid] | 398 nM | 28 nM |  |  |
| COCCC1(Cn2cc(-c3ccc(N4CCc5cccc(C(=O)Nc6nc7ccccc7s6)c5C4)nc3C(=O)O)cn2)CCCCC1 [Example 88, 6-[8-(1,3-benzothiazol-2-ylcarbamoyl)-3,4-dihydroisoquinolin-2(1H)-yl]-3-(1-{[1-(2-methoxyethyl)cyclohexyl]methyl}-1H-pyrazol-4-yl)pyridine-2-carboxylic acid] | 229 nM | 3 nM |  |  |
| Cc1c(-c2ccc(N3CCc4cccc(C(=O)Nc5nc6ccccc6s5)c4C3)nc2C(=O)O)cccc1N(C)C(=O)C1(C)CCCCC1 [Example 179, 6-[8-(1,3-benzothiazol-2-ylcarbamoyl)-3,4-dihydroisoquinolin-2(1H)-yl]-3-(2-methyl-3-{methyl[(1-methylcyclohexyl)carbonyl]amino}phenyl)pyridine-2-carboxylic acid] |  | < 0.1 nM |  | 6 nM |
